# Substitutions are numbered along the chain they refer to. Names and notes keep the numbering of the source. Where two headings read alike, the source gives them in different places. Where no end group is shown, it is not given here. [ ]: non-standard residue; d: D form.
# B1: yeast IF1 protein: IF1 protein sequence from yeast (protein, UniProt P01097 23-85, looked up)
# F(1)-ATPase inhibitor IF(1), …: SEGSTGTPRGSGSEDSFVKRERATEDFFVRQREKEQLRHLKEQLEKQRKKIDSLENKIDSMTK
# B2: human H49K IF1 protein: mutant human IF1 protein with a H49K substitution, expressed as transgene in mice (protein, UniProt Q9UII2 26-106, looked up, variant H49K)
# ATPase inhibitor, …: GSDQSENVDRGAGSIREAGGAFGKREQAEEERYFRAQSREQLAALKKHKEEEIVHHKKEIERLQKEIERHKQKIKMLKHDD
# modifications: expressed as transgene in mice
# B3: human IF1 protein: Non-mutant human IF1 protein expressed as transgene in mouse intestine cells (protein, UniProt Q9UII2 26-106, looked up)
# ATPase inhibitor, …: B2 ATPase inhibitor, … with K49H
# Columns and labels:
# [1] = cited from earlier work
# [2] = cited from earlier work; remark: listed apart in the source
# [3] = cited from earlier work; remark: listed apart in the source
# [4] = 5.5 (±1.7) ug/kg/min i.v. with inhaled nitric oxide (5 p.p.m.), across all subjects [183]; cited from earlier work
# cells [5] = conditions: cited from earlier work
# cells [6] = conditions: variant with side-chain chiral amino acids swopped; cited from earlier work
# [7] = rats, radioactively labelled [151]; cited from earlier work
# [8] = cited from earlier work; remark: listed apart in the source
# [9] = biological target: bovine F1F0 ATP hydrolysis (Bos taurus, UniProt P00829+P19483); conditions: cited from earlier work
# ROS (superoxide) = assay: MitoSOX ROS (superoxide) signal in cultured cortical neurons of H+/T+ mice; assay type: cell-based, mouse; conditions: H+/T+ vs wild-type mitochondria, corrected for MitoSOX accumulation
# Text: (FIG. 6B) Experiments with cortical neurons in culture, after being cultured for 9-10 days, after being extracted from mouse embryos. […] As in FIG. 6A. But this time in cultured cortical neurons from the mice (embryos), wherein the mitochondria of H+/T+ mice have a more hyperpolarized ΨIM (accumulate more TMRM^+) than wild-type. But, as in FIG. 6A, have a more depolarized ΨIM upon FCCP/respiratory chain inhibitor (antimycin A/rotenone) administration. A typical value for ΨIM in normal mitochondria is −140 mV and if we equate the 5 a.u. value for wild-type in the 2nd panel with −140 mV, then the 6 a.u. value of H+/T+here in the 2nd panel is −168 mV. This ΨIM disparity means that H+/T+ mitochondria accumulates more MitoSOX ROS (superoxide) reporting compound in their mitochondrial matrix, wherein this disparity can be calculated using the equation presented earlier, and this disparity is shown here, in the 3rd panel. With this MitoSOX accumulation disparity, one would expect a greater MitoSOX signal from H+/T+ mitochondria, to wild-type mitochondria, in the proportion shown in the 3rd panel. But what is actually experimentally observed is in the 4th panel. Thence H+/T+ mitochondria must produce 66% less ROS (superoxide) than wild-type, which fits with their lower oxidative respiration rate observed in (FIG. 6A). […]
# F1F0 ATP hydrolysis [10] = biological target: T1, F1F0 ATP hydrolysis (Mus musculus, UniProt P56480+Q03265); conditions: cited from earlier work
# T1 construct: F1F0 ATP hydrolysis is 35% less in brain mitochondria isolated from H+/T+ than wild-type mice; from tissue; host or cells: mitochondria isolated from brain of wild-type and H+/T+ double transgenic mice
# [11] = system: oxidative phosphorylation; conditions: State 3 respiration, H+/T+ vs wild-type [130]; cited from earlier work
# [12] = system: oxidative phosphorylation; conditions: cited from earlier work
# [13] = mouse, in vivo; cited from earlier work
# F1F0 ATP hydrolysis [14] = biological target: T1, F1F0 ATP hydrolysis; conditions: brain mitochondria of H+/T+ vs wild-type mice [130]; cited from earlier work
# [15] = system: oxidative phosphorylation; conditions: colon mitochondria, I/T Tet-on mice [136]; cited from earlier work
# F1F0 ATP hydrolysis [16] = biological target: T1, F1F0 ATP hydrolysis; conditions: colon mitochondria, I/T Tet-on mice [136]; cited from earlier work
# [17] = COPD patients, 100 mg oral daily for 1 year [168]
# [18] = 7.47 ug/kg/min for 2 hours (60 mg), at the end of the infusion period
# [19] = COPD patients, 100 mg oral daily for 1 year, at year end
molecule,measurement,setting,value
C=CCNc1nc(NCC=C)nc(N2CCN(C(c3ccc(F)cc3)c3ccc(F)cc3)CC2)n1 [almitrine dimesylate],adverse effects,"[1]; COPD patients, 75 mg oral daily for 6 months",no adverse effects
same,increase in occurrence of a nervous system disorder vs placebo control,[1]; [17],4%
same,increase in occurrence of paraesthesia vs placebo control,[1]; [17],5%
same,increase in occurrence of polyneuropathy vs placebo control,[1]; [17],3.6%
same,"incidence of peripheral neuropathy, almitrine vs control group","[1]; COPD patients, 100-200 mg daily for a year [151]",5 times higher
same,"time at which peripheral neuropathy started to manifest, on average","[1]; COPD patients, 100-200 mg daily for a year, in a minority [151]",7 months
same,safety,"[1]; healthy subjects, 400 mg oral per day, short term [163]",safe
same,lowest observed almitrine plasma level,[2]; [18],242 ng/mL
same,mean almitrine plasma level,[2]; [18],327 ng/mL
same,mean almitrine plasma level,"[2]; 7.47 ug/kg/min for 2 hours, 15 minutes afterwards",157 ng/mL
same,mean almitrine plasma level,"[2]; 7.47 ug/kg/min for 2 hours, 30 minutes afterwards",154 ng/mL
same,mean almitrine plasma level,"[2]; 7.47 ug/kg/min for 2 hours, 60 minutes afterwards",105 ng/mL
same,mean almitrine plasma level,"[2]; 7.47 ug/kg/min for 2 hours, 120 minutes afterwards",67 ng/mL
same,mean almitrine plasma level,"[2]; 7.47 ug/kg/min for 2 hours, 600 minutes afterwards",55 ng/mL
same,plasma [almitrine],"[3]; COPD patients, 50 mg twice daily for 8 weeks, 2 weeks after the study",104 ng/mL
same,plasma [almitrine] before the morning dose,"[3]; COPD patients, 50 mg twice daily, day 14",93 ng/mL
same,plasma [almitrine] before the morning dose,"[3]; COPD patients, 50 mg twice daily, day 28",134 ng/mL
same,plasma [almitrine] before the morning dose,"[3]; COPD patients, 50 mg twice daily, day 42",148 ng/mL
same,plasma [almitrine] before the morning dose,"[3]; COPD patients, 50 mg twice daily, day 56",171 ng/mL
same,average trough plasma [almitrine],"[3]; COPD patients, 75 mg oral daily for 6 months, at study end",302 ng/mL
same,mean plasma [almitrine],"[3]; COPD patients, 100 mg oral daily 2 months then 1 month none, cycle for 1 year, at end",285 ng/mL
same,mean plasma [almitrine],[3]; [19],409.35 ng/mL
same,trough plasma [almitrine],[3]; [19],301.8 ng/mL
same,plasma [almitrine],"[3]; COPD patients, 100 mg twice daily for 8 weeks, 2 weeks after the study",311 ng/mL
same,plasma [almitrine] before the morning dose,"[3]; COPD patients, 100 mg twice daily, day 14",268 ng/mL
same,plasma [almitrine] before the morning dose,"[3]; COPD patients, 100 mg twice daily, day 28",409 ng/mL
same,plasma [almitrine] before the morning dose,"[3]; COPD patients, 100 mg twice daily, day 42",442 ng/mL
same,plasma [almitrine] before the morning dose,"[3]; COPD patients, 100 mg twice daily, day 56",572 ng/mL
same,plasma [almitrine],"[3]; COPD patients, 100-200 mg daily, those presenting peripheral neuropathy, at 3 months",344 ng/mL
same,plasma [almitrine],"[3]; COPD patients, 100-200 mg daily, those presenting peripheral neuropathy, at 12 months",617 ng/mL
same,plasma [almitrine],"[3]; COPD patients, 100-200 mg daily, those without peripheral neuropathy, at 3 months",249 ng/mL
same,plasma [almitrine],"[3]; COPD patients, 100-200 mg daily, those without peripheral neuropathy, at 12 months",387 ng/mL
same,"plasma [almitrine], two 50 mg doses per day vs a single 100 mg oral dose","[3]; COPD patients, long term [167]",2 to 3 times higher
same,time of peak plasma concentration of almitrine after consuming,"[3]; human, oral [151]",3.5 ± 0.7 h
same,oral dose bioavailable,[3]; on average across subjects,85%
same,increase of arterial pO2,[4],> 30%
Kkwkmrrnqfwvkvqr (K[dK][dW][dK][dM][dR][dR][dN][dQ][dF][dW][dV][dK][dV][dQ][dR]; not fully specified (residue 1); printed as Kkwkmrrnqfwvkvqr; also: retroinverse) [Retroinverse penetratin],cellular toxicity,cells [5],some cellular toxicity
same,cellular penetration compared with penetratin,cells [6],greater cellular penetration than penetratin
C=CCNc1nc(NCC=C)nc(N2CCN(C(c3ccc(F)cc3)c3ccc(F)cc3)CC2)n1 [almitrine],tissue accumulation,[7],especially accumulated in the lungs
same,adverse side-effect,[8]; 8.3 μg/kg/min for 30 minutes [176],no adverse side-effect was observed
same,plasma lactate concentrations,[8]; 16 μg/kg/min infusion,remained within the normal range in all patients
same,deleterious effects,[8]; 16.7 ug/kg/min for 1 hour,without deleterious effects
same,mean plasma concentration of almitrine,"[2]; 8 μg/kg/min for 20 minutes, during infusion",325 ng/mL
same,highest observed plasma almitrine concentration,[2]; 16 μg/kg/min for 1 hour [177],"~1,600 ng/ml"
same,"plasma almitrine concentration, all subjects but one","[2]; 16 μg/kg/min for 1 hour, 2 hours after the infusion stopped [177]",below 400 ng/ml
same,"plasma almitrine concentration, all subjects","[2]; 16 μg/kg/min for 1 hour, by 12 hours [177]",below 200 ng/ml
same,"plasma almitrine concentration, all subjects","[2]; 16 μg/kg/min for 1 hour, during infusion [177]",greater than 600 ng/ml
same,mean plasma concentration of almitrine,"[2]; 16 μg/kg/min, 20 minutes into the infusion",659 ng/mL
B1,inhibition of bovine F1F0 ATP hydrolysis,[9],can inhibit
B2,less ROS (superoxide) produced,ROS (superoxide),66%
same,inhibition of F1F0 ATP hydrolysis capability,F1F0 ATP hydrolysis [10]; Tet-off mice [135],25%
same,inhibition of F1F0 ATP hydrolysis capability,F1F0 ATP hydrolysis [10]; Tet-on mice [135],40%
same,less O2 consumption,[11],~60%
same,decrease of State 3 respiration rate,[12]; Tet-off mice [135],37%
same,decrease of State 3 respiration rate,[12]; Tet-on mice [135],44%
same,"weight, life span and cage behavior",[13],"no differences in weight, life span and cage behavior when compared to controls after one year of follow up"
same,reduction of F1F0 ATP hydrolysis capability,F1F0 ATP hydrolysis [14],35%
B3,decrease of oligomycin sensitive respiration rate,[15],60%
same,inhibition of F1F0 ATP hydrolysis capability,F1F0 ATP hydrolysis [16],35%

# From patent publication US20250325469A1, “Inhibitors of atp synthase - cosmetic and therapeutic uses” (priority 2021, published 2025)
